Assay results reported in paper PMC4167698, “Fatty Acid Esters of Phloridzin Induce Apoptosis of Human Liver Cancer Cells through Altered Gene Expression” (PLoS ONE, 2014).

Tests used:
HepG2 cells [1] = test: MTS cell proliferation assay, HepG2; format: cell-based, human; conditions: for EC50: MTS
Experimental: (§1) Cell viability was determined by using the MTS assay. In brief, HepG2 cells (5×10^3 cells/100 µL/well), MDA-MB-231 (5×10^3 cells/100 µL/well), THP-1 (25×10^3/100 µL/well), normal human and rat hepatocytes (1×10^4 cells/100 µL/well) were plated in triplicate, in a 96 well sterile flat bottom tissue culture plates. […] Thereby, cells were exposed to various concentrations (0.1, 1, 10, 25, 50, 75, 100 µM) of each treatment. Controls consist of cells with media containing DMSO (<0.5%), test blank wells contained the test compound in media with no cells and blank wells contained media with no cells. After additional 3, 6, 12, 18 or 24 h, 20 µL of the MTS reagent in combination with the electron coupling agent, phenazine methosulfate were added to the wells and cells were incubated in a humidified incubator for 3 h. Absorbance at 490 nm (OD490) was measured by using a Flurostar Optima microplate reader (BMG Labtech, Cary, NC, USA) to obtain the number of viable cells relative to the control population. Percentage of viability of the test compound treated cells are expressed as percentage compared to control (<0.5% DMSO). […] The selective index (SI) of the fatty acid esters of phloridzin is defined as the ratio of cytotoxicity (EC50 values) on normal HP-F cells to solid cancer HepG2, MDA-MB-231 cells (SI = EC50 on HP-F cells/EC50 on solid cancer cells). Samples with SI values greater than three were considered to have high selectivity towards cancer cells.

[2] = test system: normal human hepatocytes (HP-F); test: MTS cell viability assay, normal human hepatocytes; format: cell-based; conditions: 24 h
Experimental: as §1

HepG2 cells [3] = test: Morphologic observation under inverted phase contrast microscope; format: cell-based, human; conditions: HepG2, 100 µM, 24 h
Experimental: After 24 h of treatment, the morphology of HepG2 cells was observed under an inverted phase contrast microscope (Nikon Eclipse E 100, Nikon, Mississauga, ON, Canada) and were captured at 400X magnification using Infinity digital microscopy camera (Lumenera corporation, Ottawa, ON, Canada).

HepG2 cells [4] = test: DNA fragmentation (apoptotic DNA ladder); format: cell-based, human; conditions: HepG2, 100 µM, 24 h, agarose gel
Experimental: HepG2 (1×10^5) cells were seeded in 24-well culture plates and were allowed to adhere overnight. […] The plates were re-incubated for another 24 h. DNA fragmentation was detected using ApoTarget Quick Apoptotic DNA Ladder Detection Kit (Invitrogen, Burlington, ON, Canada) according to the manufacturer’s protocol. The principle involves detecting the internucleosomal DNA fragments formed during apoptosis. Briefly, floating dead cells and trypsinized adherent cells were collected and centrifuged at 1,000 rpm for 10 min. After washing with diluted phosphate buffered saline, the cells were lysed with 35 µL TE lysis buffer (a kit component). To the lysate, 5 µL of Enzyme A (a kit component) was added and incubated at 37°C for 10 min. Afterwards, 5 µL of Enzyme B (a kit component) was added, gently mixed and incubated at 50°C for 30 min. The DNA was precipitated with the ammonium acetate and absolute ethanol at −20°C. After centrifugation (10 min at 12,000 rpm) and air drying, the DNA pellet was dissolved in 30 µL of DNA suspension buffer. For detecting the DNA ladder, the extracted DNA samples were run on a 1.2% agarose gel containing 0.5 µg/mL gel red in Tris-Borate-EDTA (TBE) buffer. After electrophoresis, the gel image was captured using Gel Doc 100 system (Bio-Rad, Mississauga, ON, Canada).

[5] = test system: caspase 3 activity of HepG2 cells; test: Caspase-3 colorimetric activity assay; format: cell-based, human; conditions: HepG2, 100 µM, 24 h, compared to DMSO control
Experimental: The activity of caspase 3 enzyme was measured using caspase 3 colorimetric assay kit purchased from Sigma-Aldrich. […] Cells were lysed and the protein content of cell lysate was quantified by the BCA protein assay (Thermo Fisher Scientific Inc., Ottawa, ON, Canada). Caspase-3 activity was measured in the 200 µg of cell lysate using the caspase-specific peptide substrate, DEVD (Asp-Glu-Val-Asp), conjugated to reporter p-nitroanaline (ρ-NA) molecules.

HepG2 cells [6] = test: Mitochondrial membrane potential (JC-1); format: cell-based, human; conditions: HepG2, 100 µM, 24 h
Experimental: HepG2 cells were seeded in a black walled clear bottom 96-well sterile flat bottom tissue culture plates (BD Biosciences, USA) at a density of 5×10^4 cells/well (100 µL) and incubated in a CO2 incubator for 24 h at 37°C. […] The staining solution JC-1 was prepared with PBS and 5 µM was added to each well. The cells were further incubated in a CO2 incubator at 37°C for 1 h. After washing the plate with PBS twice, the fluorescence was measured using a Fluostar Optima microplate reader (BMG Labtech) at 535 nm for JC-1 monomers and at 590 nm for JC-1 aggregates.

human DNA topo IIα = molecular target: T1, human DNA topo IIα (Homo sapiens, UniProt P11388); test: Topoisomerase IIα catalytic activity (pHOT1 DNA relaxation); format: biochemical; conditions: 100 µM, 4 units enzyme, 37°C 30 min
T1 construct: purchased TopoGEN, Inc., Columbus, OH, USA
T1 sequence (P11388 whole entry): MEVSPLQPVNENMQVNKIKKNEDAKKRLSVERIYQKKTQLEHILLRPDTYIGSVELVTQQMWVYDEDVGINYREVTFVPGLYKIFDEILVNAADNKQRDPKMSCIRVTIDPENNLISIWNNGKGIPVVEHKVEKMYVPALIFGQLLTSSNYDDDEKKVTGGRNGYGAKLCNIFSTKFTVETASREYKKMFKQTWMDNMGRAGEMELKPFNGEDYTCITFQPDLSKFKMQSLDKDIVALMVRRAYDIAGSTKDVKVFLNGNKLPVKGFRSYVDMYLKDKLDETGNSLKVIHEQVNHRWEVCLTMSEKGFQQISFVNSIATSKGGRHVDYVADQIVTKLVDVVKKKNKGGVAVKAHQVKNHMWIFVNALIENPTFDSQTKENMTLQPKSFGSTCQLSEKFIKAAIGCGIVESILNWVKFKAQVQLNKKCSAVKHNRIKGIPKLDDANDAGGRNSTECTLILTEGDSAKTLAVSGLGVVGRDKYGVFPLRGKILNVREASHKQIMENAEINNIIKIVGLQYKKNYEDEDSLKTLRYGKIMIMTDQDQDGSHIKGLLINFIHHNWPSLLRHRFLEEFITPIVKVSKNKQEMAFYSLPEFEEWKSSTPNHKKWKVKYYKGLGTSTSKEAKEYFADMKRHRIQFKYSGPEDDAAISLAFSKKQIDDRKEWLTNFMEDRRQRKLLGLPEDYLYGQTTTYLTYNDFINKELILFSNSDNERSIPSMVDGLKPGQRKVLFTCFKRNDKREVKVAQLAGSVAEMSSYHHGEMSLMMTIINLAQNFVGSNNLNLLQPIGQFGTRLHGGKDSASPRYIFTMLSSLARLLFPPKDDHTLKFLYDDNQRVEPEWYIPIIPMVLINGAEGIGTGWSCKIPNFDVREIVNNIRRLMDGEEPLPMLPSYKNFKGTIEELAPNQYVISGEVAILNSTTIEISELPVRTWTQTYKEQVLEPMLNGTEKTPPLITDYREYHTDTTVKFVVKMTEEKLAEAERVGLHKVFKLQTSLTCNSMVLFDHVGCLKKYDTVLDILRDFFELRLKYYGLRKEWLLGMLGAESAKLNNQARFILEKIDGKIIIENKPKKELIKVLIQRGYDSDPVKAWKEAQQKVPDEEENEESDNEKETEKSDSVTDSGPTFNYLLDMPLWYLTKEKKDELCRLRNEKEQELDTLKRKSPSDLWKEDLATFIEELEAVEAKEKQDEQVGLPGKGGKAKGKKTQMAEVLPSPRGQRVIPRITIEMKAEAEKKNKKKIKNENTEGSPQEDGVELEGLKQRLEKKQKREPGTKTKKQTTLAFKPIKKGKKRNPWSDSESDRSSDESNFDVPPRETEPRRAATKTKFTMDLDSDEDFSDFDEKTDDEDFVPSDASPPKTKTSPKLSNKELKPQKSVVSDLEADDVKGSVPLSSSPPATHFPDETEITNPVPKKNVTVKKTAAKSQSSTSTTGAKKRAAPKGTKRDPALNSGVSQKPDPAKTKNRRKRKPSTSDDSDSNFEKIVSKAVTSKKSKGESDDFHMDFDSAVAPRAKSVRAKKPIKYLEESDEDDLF
Experimental: The topo IIα catalytic activity was monitored via electrophoresis using topoisomerase II drug screening kit (TopoGEN, Inc., Columbus, OH, USA). Briefly, 20 µL of reaction mixtures contained 0.5 M Tris-HCl, pH 8.0, 1.5 M NaCl, 100 mM MgCl2, 20 mM ATP, 300 µg BSA/mL and 5 mM dithiothreitol. Supercoiled DNA (pHOT1 DNA), supercoiled provided in the kit was determined to be ideal for this assay because it is small and easy to handle and has a large number of topo IIα recognition elements. […] The reaction was terminated by adding 2 µL of 10% sodium dodecyl sulfate (SDS) followed by digestion with 2 µL of proteinase K (50 µg/mL) at 37°C for 15 min to degrade enzyme. After adding 2 µL of loading buffer (0.25% bromophenol blue and 50% glycerol) was added to the mixture, samples were loaded onto 1% agarose gel. Electrophoresis was conducted at 66 V (2 V/cm) for 5 h in TBE buffer using Biorad Electrophoretic Gel System (Bio-Rad, Hercules, CA, USA). Supercoiled DNA (pHOT1 DNA) and relaxed DNA were included in the electrophoresis run as markers for DNA topology. Gels were then stained in 0.5 µg/mL gel red in TBE for 30 min and destained for 15 min in distilled water prior to digital image acquisition using Gel Doc 100 system (Bio-Rad, Hercules, CA, USA).
One unit of topoisomerase II activity was defined as the minimum amount of enzyme required to achieve complete relaxation of […] superhelical pHOT1 DNA in 30 min at 37°C. […] The percent of inhibition was calculated by the following formula: [drawing 1] Where Scontrol is the percent of supercoiled DNA in the control lane (without enzyme and test compounds), S0 is the percent of supercoiled DNA in the lane without test compounds and S is the percent of supercoiled DNA in the lane with test compounds and enzyme.

rat hepatocytes (RTCP10) = test: MTS cell viability assay, rat hepatocytes; format: cell-based; conditions: 100 µM, 24 h
Experimental: as §1, with “Samples with SI values greater than three were considered to have high selectivity towards cancer cells.” left out

MDA-MB-231 cells = test: MTS cell proliferation assay, MDA-MB-231; format: cell-based, human; conditions: for EC50: MTS
Experimental: as §1

THP-1 cells = test: MTS cell proliferation assay, THP-1; format: cell-based, human; conditions: MTS
Experimental: as §1

HepG2 cells [7] = test: LDH release cytotoxicity assay; format: cell-based, human; conditions: HepG2, 100 µM, 6 h, relative to maximum release by 1% Triton X-100
Experimental: Lactate dehydrogenase (LDH) is a stable cytosolic enzyme that is released upon membrane damage in apoptotic/necrotic cells. LDH activity was measured using CytoTox 96 Non-Radioactive Cytotoxicity Assay (Promega, Madison, WI, USA), in which LDH released in culture supernatants is measured with a coupled enzymatic assay, resulting in conversion of a tetrazolium salt into a red formazan product. […] After centrifugation, the supernatant was removed to an assay plate, and the LDH released from the cells into culture medium was measured. The maximal release was obtained after treating control cells with 1% Triton X-100 for 30 min at room temperature. The apoptotic/necrotic percentage was expressed using the formula: (sample value/maximal release)×100%.

CNC(=O)c1cc(Oc2ccc(NC(=O)Nc3ccc(Cl)c(C(F)(F)F)c3)cc2)ccn1 [Sorafenib, sorafenib]
EC50 (HepG2 cells [1]; Homo sapiens, HepG2, 3 h): 67.5 ± 5.2 µM | EC50 (HepG2 cells [1]; Homo sapiens, HepG2, 6 h): 46.7 ± 3.5 µM | EC50 (HepG2 cells [1]; Homo sapiens, HepG2, 12 h): 17.3 ± 0.8 µM | EC50 (HepG2 cells [1]; Homo sapiens, HepG2, 18 h): 13.4 ± 0.9 µM | EC50 (HepG2 cells [1]; Homo sapiens, HepG2, 24 h): 10.7 ± 0.5 µM | EC50 ([2]; Hepatocyte): > 100 µM | apoptotic morphological changes (HepG2 cells [3]): morphological changes which are characteristic to apoptosis | internucleosomal DNA fragmentation (HepG2 cells [4]): clear DNA ladders | caspase 3 activity [5]: significant (P<0.001) increase | mitochondrial membrane potential (HepG2 cells [6]): significant (P<0.05) reduction | catalytic activity of human DNA topo IIα (pHOT DNA relaxation) (human DNA topo IIα): inhibited catalytic activity

CCCCCCCCCCCCCCCCCC(=O)OC[C@H]1O[C@@H](Oc2cc(O)cc(O)c2C(=O)CCc2ccc(O)cc2)[C@H](O)[C@@H](O)[C@@H]1O [Pz-Stearic acid ester, stearic acid ester of Pz]
viability of rat hepatocytes (rat hepatocytes (RTCP10)): about 50%

CC/C=C\C/C=C\C/C=C\C/C=C\C/C=C\CCCC(=O)OC[C@H]1O[C@@H](Oc2cc(O)cc(O)c2C(=O)CCc2ccc(O)cc2)[C@H](O)[C@@H](O)[C@@H]1O [Pz-EPA ester, eicosapentaenoic acid ester (EPA) of Pz]
SI (selective index) (HepG2 cells [1]; EC50 of HP-F cells/EC50 on HepG2, 24 h): 7.4 | EC50 (HepG2 cells [1]; HepG2, 3 h): 39.4 ± 2.8 µM | EC50 (HepG2 cells [1]; HepG2, 6 h): 37.8 ± 1.9 µM | EC50 (HepG2 cells [1]; HepG2, 12 h): 36 ± 2.1 µM | EC50 (HepG2 cells [1]; HepG2, 18 h): 33.1 ± 2.4 µM | EC50 (HepG2 cells [1]; HepG2, 24 h): 26.8 ± 1.8 µM | SI (selective index) (MDA-MB-231 cells; EC50 of HP-F cells/EC50 on MDA-MB-231, 24 h): 7.5 | EC50 (MDA-MB-231 cells; MDA-MB-231, 3 h): 37.9 ± 2.2 µM | EC50 (MDA-MB-231 cells; MDA-MB-231, 6 h): 33.6 ± 1.8 µM | EC50 (MDA-MB-231 cells; MDA-MB-231, 12 h): 32.6 ± 1.8 µM | EC50 (MDA-MB-231 cells; MDA-MB-231, 18 h): 31.5 ± 2.3 µM | EC50 (MDA-MB-231 cells; MDA-MB-231, 24 h): 26.5 ± 1.1 µM | EC50 (THP-1 cells; THP-1, 3 h): 27.9 ± 1.5 µM | EC50 (THP-1 cells; THP-1, 6 h): 19.9 ± 1.1 µM | EC50 (THP-1 cells; THP-1, 12 h): 17 ± 0.6 µM | EC50 (THP-1 cells; THP-1, 18 h): 15.8 ± 0.8 µM | EC50 (THP-1 cells; THP-1, 24 h): 14.8 ± 0.6 µM | EC50 [2]: > 100 µM | LDH release (HepG2 cells [7]): 82.7±1.5%
